Measurements: ChEMBL document CHEMBL5584354, “Impact of Conjugation of the Reactive Oxygen Species (ROS)-Generating Catalytic Moiety with Membrane-Active Antimicrobial Peptoids: Promoting Multitarget Mechanism and Enhancing Selectivity” (J Med Chem, 2024)
In brackets after ≈: the same amount, converted by molar mass. Activity calls are given as the source filed them. The rule behind the calls is not given here. Non-standard residues stand in square brackets, D forms with d. Residues, ends and D or L forms follow the SMILES beside them. Gly(N(CH2)2(3-indolyl)) = O=C(O)CNCCc1c[nH]c2ccccc12; Nspe = C[C@H](NCC(=O)O)c1ccccc1; Nlys = NCCCCNCC(=O)O

What was measured:
[1] = tested on: Escherichia coli; test: Antibacterial activity against Escherichia coli ATCC 25922 assessed as inhibition of bacterial growth incubated for 24 hrs by broth dilution method; type: functional
[2] = tested on: Staphylococcus aureus; test: Antibacterial activity against Staphylococcus aureus ATCC 25923 assessed as inhibition of bacterial growth incubated for 24 hrs by broth dilution method; type: functional
[3] = Hemolytic activity in male Sprague-Dawley rat erythrocytes at 25 uM incubated for 1 hr by absorbance based method relative to control; type: toxicity, cell-based, Erythrocyte; settings: read-out: Activity
[4] = Hemolytic activity in male Sprague-Dawley rat erythrocytes at 50 uM incubated for 1 hr by absorbance based method relative to control; type: toxicity, cell-based, Erythrocyte; settings: read-out: Activity
[5] = Hemolytic activity in male Sprague-Dawley rat erythrocytes assessed as concentration required for 50% hemolysis incubated for 1 hr by absorbance based method; type: toxicity, cell-based, Erythrocyte
[6] = tested on: HaCaT; test: Cytotoxicity against human HaCaT cells assessed as cell killing incubated for 24 hrs by MTS assay; type: toxicity, cell-based
[7] = tested on: Escherichia coli; test: Antibacterial activity against carbapenem-resistant Escherichia coli NMS11035 harboring extended-spectrum beta-lactamase assessed as inhibition of bacterial growth incubated for 24 hrs by broth dilution method; type: functional
[8] = tested on: Acinetobacter baumannii; test: Antibacterial activity against carbapenem-resistant Acinetobacter baumannii NMS1707 harboring extended-spectrum beta-lactamase assessed as inhibition of bacterial growth incubated for 24 hrs by broth dilution method; type: functional
[9] = tested on: Klebsiella pneumoniae; test: Antibacterial activity against carbapenem-resistant Klebsiella pneumoniae NMS118 harboring extended-spectrum beta-lactamase assessed as inhibition of bacterial growth incubated for 24 hrs by broth dilution method; type: functional
[10] = tested on: Cell membrane; test: Disruption of outer membrane in Escherichia coli ATCC 25922 assessed as increase in absorbance measured every 5 mins for 90 mins by nitrocefin assay; type: cell membranes; settings: dose 0-25 µM
[11] = tested on: DNA; test: Binding affinity to pUC19 plasmid DNA (unknown origin) assessed as smearing and retardation of DNA bands at 25 uM incubated for 2 hrs by agarose gel imaging method; type: nucleic-acid assay
[12] = tested on: Escherichia coli; test: Induction of lipid peroxidation in Escherichia coli ATCC 25922 assessed as increase in green fluorescence at 12.5 uM incubated for 1 hrs by BODIPY 581/591 C11 dye based confocal microscopic analysis; type: functional, organism-based
[13] = tested on: Streptococcus pneumoniae; test: Antibacterial activity against catalase-negative Streptococcus pneumoniae KCMM42691 assessed as inhibition of bacterial growth incubated for 24 hrs by broth dilution method; type: functional
[14] = tested on: Streptococcus pneumoniae; test: Antibacterial activity against catalase-negative Streptococcus pneumoniae KCMM42691 assessed as cell killing at 12.5 uM incubated for 4 to 16 hrs by CFU assay; type: functional, organism-based; settings: time 4-16 hrs
[15] = tested on: RAW264.7; test: Antiinflammatory activity in LPS-stimulated mouse RAW264.7 cells assessed as reduction in IL-1beta production at 10 uM incubated for 16 hrs by ELISA relative to control; type: functional; parameters: scale not given: the % may be the effect or the level left
[16] = tested on: RAW264.7; test: Inhibition of LPS-induced NF-kappaB pathway in mouse RAW264.7 cells assessed as reduction in NF-kappaB nuclear translocation at 10 uM preincubated for 1 hr followed by LPS addition and measured after 1 hr by immunofluorescence staining based confocal microscopic analysis; type: cell-based; settings: time 2.0 hrs
[17] = tested on: HEK293; test: Cytotoxicity against HEK293 cells assessed as reduction in cell viability at 3.1 to 25 uM incubated for 24 hrs by WST-8 assay; type: toxicity, cell-based; settings: human, hek293, 24 h, dose 3.1-25 µM
[18] = Toxicity in female ICR mouse assessed as effect on blood urea nitrogen level at 5 mg/kg, ip administered four doses for 12 hrs and measured 24 hrs post last dose; type: organism-based; settings: in vivo, 36 h
[19] = Toxicity in female ICR mouse assessed as effect on ALT level in serum at 5 mg/kg, ip administered four doses for 12 hrs and measured 24 hrs post last dose; type: organism-based; settings: in vivo, 36 h
[20] = Toxicity in female ICR mouse assessed as lymphocyte infiltration in kidney at 5 mg/kg, ip administered four doses for 12 hrs and measured 24 hrs post last dose by H and E staining based light microscopic analysis; type: organism-based; settings: in vivo, 36 h
[21] = Acute toxicity in female ICR mouse assessed as animal survival at 5 mg/kg, ip administered four doses for 12 hrs; type: organism-based; settings: in vivo
[22] = tested on: Escherichia coli; test: Antibacterial activity against Escherichia coli K1 infected in female ICR mouse model of septic shock assessed as increase in animal survival at 5 mg/kg, ip pretreated for 1 hr followed by bacteria addition and further treated with 3 doses of compound every 4 hrs and measured every hour for 36 hrs and every 6 hrs for 96 hrs; type: functional
[23] = tested on: Escherichia coli; test: Antibacterial activity against Escherichia coli K1 infected in female ICR mouse model of septic shock assessed as reduction in bacterial load in kidney at 5 mg/kg, ip pretreated for 1 hr followed by bacteria addition and further treated with 3 doses of compound every 4 hrs; type: functional, organism-based; settings: time 9.0 hrs
[24] = tested on: Escherichia coli; test: Antibacterial activity against Escherichia coli K1 infected in female ICR mouse model of septic shock assessed as reduction in IL-1beta level in serum at 5 mg/kg, ip pretreated for 1 hr followed by bacteria addition and further treated with 3 doses of compound every 4 hrs by ELISA relative to control; type: functional; parameters: scale not given: the % may be the effect or the level left; settings: time 9 hrs
[25] = tested on: Escherichia coli; test: Antibacterial activity against Escherichia coli K1 infected in female ICR mouse model of septic shock assessed as reduction in AST level in serum at 5 mg/kg, ip pretreated for 1 hr followed by bacteria addition and further treated with 3 doses of compound every 4 hrs relative to control; type: functional; parameters: scale not given: the % may be the effect or the level left; settings: time 9 hrs
[26] = tested on: Escherichia coli; test: Antibacterial activity against Escherichia coli K1 infected in female ICR mouse model of septic shock assessed as reduction in BUN level in serum at 5 mg/kg, ip pretreated for 1 hr followed by bacteria addition and further treated with 3 doses of compound every 4 hrs relative to control; type: functional; parameters: scale not given: the % may be the effect or the level left; settings: time 9 hrs
[27] = tested on: Escherichia coli; test: Antibacterial activity against Escherichia coli K1 infected in female ICR mouse model of septic shock assessed as creatinine level in serum at 5 mg/kg, ip pretreated for 1 hr followed by bacteria addition and further treated with 3 doses of compound every 4 hrs (reference value: 57.3%); type: functional; settings: time 9 hrs
[28] = tested on: Escherichia coli; test: Antibacterial activity against Escherichia coli K1 infected in female ICR mouse model of septic shock assessed as reduction in lung edema at 5 mg/kg, ip pretreated for 1 hr followed by bacteria addition and further treated with 3 doses of compound every 4 hrs by H and E staining based light microscopic analysis; type: functional, organism-based; settings: time 9.0 hrs
[29] = tested on: Escherichia coli; test: Antibacterial activity against Escherichia coli K1 infected in female ICR mouse model of septic shock assessed as reduction in alveolar hemorrhage in lung at 5 mg/kg, ip pretreated for 1 hr followed by bacteria addition and further treated with 3 doses of compound every 4 hrs by H and E staining based light microscopic analysis; type: functional, organism-based; settings: time 9.0 hrs

For C[C@@H](c1ccccc1)N(CC(=O)N(CCCCN)CC(=O)N(CCc1c[nH]c2ccccc12)CC(=O)N(CCc1c[nH]c2ccccc12)CC(N)=O)C(=O)CN(CCCCN)C(=O)CN(CCCCN)C(=O)CN(C(=O)CN(C(=O)CN(CCCCN)C(=O)CN(C(=O)CN(C(=O)CN(CCCCN)C(=O)[C@H](Cc1c[nH]cn1)NC(=O)CNC(=O)CN)[C@@H](C)c1ccccc1)[C@@H](C)c1ccccc1)[C@@H](C)c1ccccc1)[C@@H](C)c1ccccc1 (H-GGH[Nlys][Nspe][Nspe][Nlys][Nspe][Nspe][Nlys][Nlys][Nspe][Nlys][Gly(N(CH2)2(3-indolyl))][Gly(N(CH2)2(3-indolyl))]-NH2), which MIC [1] is on record?
Its MIC is 6.3 µM (≈ 13.3 µg/mL).

And the MIC [2]?
Its MIC is 12.5 µM (≈ 26.4 µg/mL).

What about the hemolysis at 1 h, 25 µM [3] of the same compound?
The hemolysis at 1 h, 25 µM was 3.13%.

And the hemolysis at 1 h, 50 µM [4]?
Its hemolysis at 1 h, 50 µM is 4.83%.

And the HC50 at 1 h [5]?
The HC50 at 1 h was over 100 µM.

And the LC50 [6]?
The LC50 was 110 µM.

What about the MIC [7] of the same compound?
The MIC was 12.5 µM (≈ 26.4 µg/mL).

And the MIC [8]?
Its MIC is 3.1 µM (≈ 6.56 µg/mL).

What about the MIC [9] of the same compound?
The MIC was over 25 µM.

And the Activity [10]?
The Activity was “Dose-Dependent Effect”.

And the Activity [11]?
Its Activity is “Active”.

And the Activity [12]?
Its Activity is “Active”.

What about the MBC [13] of the same compound?
Its MBC is 12.5 µM (≈ 26.4 µg/mL).

What about the MIC [13] of the same compound?
The MIC was 6.3 µM (≈ 13.3 µg/mL).

And the Activity [14]?
Its Activity is “Active”.

And the Activity [15]?
The Activity was 36%.

What about the inhibition [16] of the same compound?
The inhibition was “Active”.

What about the Activity [17] of the same compound?
Its Activity is “Non-Toxic”.

And the Activity [18]?
The Activity was “Non-Toxic”.

And the Activity [19]?
The Activity was “Non-Toxic”.

What about the Activity [20] of the same compound?
Its Activity is “Non-Toxic”.

And the Survival [21]?
Its Survival is over 96 h.

What about the survival at 5 mg/kg [22] of the same compound?
The survival at 5 mg/kg was 60%.

And the Activity [23]?
The Activity was “Active”.

What about the Activity [24] of the same compound?
Its Activity is 48.3%.

And the Activity [25]?
Its Activity is 32.7%.

What about the Activity [26] of the same compound?
The Activity was 40.3%.

What about the Activity [27] of the same compound?
The Activity was 32.8%.

And the Activity [28]?
The Activity was “Active”.

What about the Activity [29] of the same compound?
The Activity was “Active”.
